The values that follow come from patent US20250289897A1, “LEPTIN RECEPTOR AGONISTIC ANTIBODY AS MONO OR COMBO THERAPIES TO TREAT OBESITY” (ELI LILLY AND COMPANY, priority 2024, published 2025).

For one assay, the system named is cyno-LEPR. Description: STAT3-luciferase reporter assay in HEK293-STAT3Luc-cmLepR2 cells. Type of assay: cell-based, Macaca fascicularis. From the text: (§1) LEPR is a cell surface single-pass transmembrane receptor. Activation of LEPR leads to phosphorylation of intracellular STAT3 (pSTAT3) and subsequent target gene transcription. To measure LEPR activation by anti-LEPR antibodies in the present disclosure, five independent STAT-luciferase reporter cell lines were established by introducing DNA plasmids encoding full-length LEPR of different species and STAT3-luciferase reporter gene into HEK293 cells (Table 4). […]
(§2) Before plating the cells for luciferase assays, the poly-D-Lysine coated 96-well plates (Corning Inc, #354651) were rinsed once with phosphate buffered solution (PBS). […] Cell lysing and One-Glo luciferase substrate solution (Promega, #E6120) were then added to each well, and relative luciferase units (RLUs) were measured on a ClarioStar plate reader. For each reporter cell line, positive control LEPR activation was calculated as the average RLUs stimulated by 20 nM recombinant human leptin protein (SEQ ID NO:27) minus the average RLUs of unstimulated cells and was set as maximum LEPR activation (100%). […]
(In general: Reporter assays use an easily measured gene product as a stand-in for the process of interest.)

The target in a further assay is T1, rat-LEPR (Rattus norvegicus, UniProt Q62959).
T1 construct: introducing DNA plasmids encoding full-length LEPR of different species and STAT3-luciferase reporter gene into HEK293 cells; expressed in transfected cells; host or cells: HEK293 (HEK293-STAT3Luc-ratLepR3)
T1 sequence (Q62959 22-1162): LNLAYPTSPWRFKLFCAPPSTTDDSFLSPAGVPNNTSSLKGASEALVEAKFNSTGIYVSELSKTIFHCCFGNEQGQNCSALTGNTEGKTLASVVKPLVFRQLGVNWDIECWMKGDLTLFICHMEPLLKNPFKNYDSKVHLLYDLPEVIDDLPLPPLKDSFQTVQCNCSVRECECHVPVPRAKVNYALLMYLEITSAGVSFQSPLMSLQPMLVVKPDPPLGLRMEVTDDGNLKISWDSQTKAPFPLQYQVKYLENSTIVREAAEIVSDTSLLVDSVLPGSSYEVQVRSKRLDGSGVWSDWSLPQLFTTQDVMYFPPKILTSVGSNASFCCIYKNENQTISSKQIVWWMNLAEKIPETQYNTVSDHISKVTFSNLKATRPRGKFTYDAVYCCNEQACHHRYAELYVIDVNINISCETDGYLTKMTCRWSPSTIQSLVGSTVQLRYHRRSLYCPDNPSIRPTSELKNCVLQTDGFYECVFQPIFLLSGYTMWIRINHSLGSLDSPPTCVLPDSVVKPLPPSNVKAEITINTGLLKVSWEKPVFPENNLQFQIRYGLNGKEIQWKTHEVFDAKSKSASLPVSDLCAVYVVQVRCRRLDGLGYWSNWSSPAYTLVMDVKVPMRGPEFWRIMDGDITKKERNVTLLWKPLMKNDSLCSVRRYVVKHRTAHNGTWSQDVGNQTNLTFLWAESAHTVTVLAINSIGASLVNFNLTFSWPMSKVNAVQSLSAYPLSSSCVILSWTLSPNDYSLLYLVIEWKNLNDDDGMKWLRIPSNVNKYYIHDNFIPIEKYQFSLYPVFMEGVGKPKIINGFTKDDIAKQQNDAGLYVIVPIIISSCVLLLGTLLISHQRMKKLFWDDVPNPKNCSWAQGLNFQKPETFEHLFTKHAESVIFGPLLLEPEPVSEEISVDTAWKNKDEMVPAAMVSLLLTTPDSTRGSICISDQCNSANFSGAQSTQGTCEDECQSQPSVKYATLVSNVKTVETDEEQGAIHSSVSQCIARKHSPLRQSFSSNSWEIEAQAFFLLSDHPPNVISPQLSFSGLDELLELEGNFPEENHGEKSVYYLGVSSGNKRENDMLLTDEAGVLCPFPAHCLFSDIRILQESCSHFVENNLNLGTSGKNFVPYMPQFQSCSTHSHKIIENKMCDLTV
Description: STAT3-luciferase reporter assay in HEK293-STAT3Luc-ratLepR3 cells. Type of assay: cell-based.
Excerpt: as §1, §2

For “human leptin: recombinant human leptin protein (SEQ ID NO:27), positive control”, the EC50 (as a rule, the concentration giving half of the maximal effect) was 0.674 ± 0.11 nM in the assay with cyno-LEPR (STAT3-luciferase, 20 hours, read-out: EC50 (nM) ± SEM) and 6.29 ± 0.62 nM in the assay with rat-LEPR (antibodies at concentrations up to 90 nM, read-out: EC50 (nM) ± SEM). In addition, the “Agonism (%) ± SEM” value was found to be 106.34% in the assay with cyno-LEPR (top of fitted curve vs response to 20 nM recombinant human leptin) and 106.1% in the assay with rat-LEPR (vs 20 nM recombinant human leptin, antibodies up to 90 nM).
